Seven compounds from ChEMBL document CHEMBL5465560, “Selectivity Literature for EUbOPEN Chemogenomic Library” (2024) can be followed below.

Each structure is given as a SMILES string.

Assay [1] deals with Leucine-rich repeat serine/threonine-protein kinase 2 (Homo sapiens), Q5S007 [G2019S]. The assay is described as follows: Selectivity interaction (Adapta Assay) EUB0001632a LRRK2. The settings on record: at 10 µM.
Assay [2] relates to Phosphatidylinositol 4,5-bisphosphate 3-kinase catalytic subunit alpha isoform (Homo sapiens), P42336 [H1047L]. The assay is described as follows: (§1) Selectivity interaction (KinomeScan (DiscoverX)) EUB0000666a PIK3CA. The settings on record: at 10 µM.
Assay [3] concerns the target Phosphatidylinositol 4,5-bisphosphate 3-kinase catalytic subunit alpha isoform (Homo sapiens) (UniProt P42336). The assay is described as §1. The settings on record: at 10 µM.
For assay [4], the system named is Phosphatidylinositol 4,5-bisphosphate 3-kinase catalytic subunit alpha isoform (Homo sapiens), P42336 [H1047Y]. The assay is described as §1. The settings on record: at 10 µM.
Assay [5] concerns Phosphatidylinositol 4,5-bisphosphate 3-kinase catalytic subunit alpha isoform (Homo sapiens), P42336 [Q546K]. The description is as §1. As to conditions: at 10 µM.
Assay [6] has as its system Phosphatidylinositol 4,5-bisphosphate 3-kinase catalytic subunit alpha isoform (Homo sapiens), P42336 [C420R]. The description is as §1. The settings on record: at 10 µM.
Assay [7] relates to Phosphatidylinositol 4,5-bisphosphate 3-kinase catalytic subunit alpha isoform (Homo sapiens), P42336 [E542K]. Described as §1. The settings on record: at 10 µM.
For assay [8], the system named is Phosphatidylinositol 4,5-bisphosphate 3-kinase catalytic subunit alpha isoform (Homo sapiens), P42336 [E545K]. Described as §1. The settings on record: at 10 µM.
Assay [9] concerns Phosphatidylinositol 4,5-bisphosphate 3-kinase catalytic subunit alpha isoform (Homo sapiens), P42336 [I800L]. The description is as §1. As to conditions: at 10 µM.
Assay [10] deals with Phosphatidylinositol 4,5-bisphosphate 3-kinase catalytic subunit alpha isoform (Homo sapiens), P42336 [M1043I]. The description is as §1. The settings on record: at 10 µM.
Assay [11] deals with Phosphatidylinositol 4,5-bisphosphate 3-kinase catalytic subunit alpha isoform (Homo sapiens), P42336 [E545A]. Described as §1. The settings on record: at 10 µM.
The target of assay [12] is Epidermal growth factor receptor (Homo sapiens, UniProt P00533). The assay can be described thus: Selectivity interaction (Radiometric kinase assay (using 10 uM ATP)) EUB0000601a EGFR.
In assay [13] the target is T1, Tyrosine-protein kinase Tec (Homo sapiens) (UniProt P42680).
T1 sequence (whole entry): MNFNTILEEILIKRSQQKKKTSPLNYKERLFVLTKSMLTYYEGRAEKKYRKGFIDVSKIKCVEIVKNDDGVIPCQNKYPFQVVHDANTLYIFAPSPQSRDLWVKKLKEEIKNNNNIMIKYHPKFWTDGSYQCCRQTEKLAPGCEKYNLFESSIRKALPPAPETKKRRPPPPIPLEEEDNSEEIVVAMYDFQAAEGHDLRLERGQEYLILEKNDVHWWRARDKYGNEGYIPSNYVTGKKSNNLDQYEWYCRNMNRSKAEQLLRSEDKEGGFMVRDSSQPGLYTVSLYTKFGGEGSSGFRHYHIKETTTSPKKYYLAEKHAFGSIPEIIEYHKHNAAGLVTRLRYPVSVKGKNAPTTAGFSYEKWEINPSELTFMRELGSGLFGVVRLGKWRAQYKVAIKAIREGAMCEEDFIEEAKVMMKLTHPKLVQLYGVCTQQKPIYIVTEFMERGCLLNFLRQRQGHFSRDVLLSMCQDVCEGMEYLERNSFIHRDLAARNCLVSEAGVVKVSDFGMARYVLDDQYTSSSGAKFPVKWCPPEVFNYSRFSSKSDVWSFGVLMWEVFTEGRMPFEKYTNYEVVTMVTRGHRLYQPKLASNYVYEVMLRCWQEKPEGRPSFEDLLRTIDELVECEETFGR
The assay can be described thus: Selectivity interaction (ActivX KiNativ screen (kinase selectivity in THP-1 cell lysates)) EUB0000639a TEC. The settings on record: lysate. The class given is subcellular.

Assay [14] deals with Vascular endothelial growth factor receptor 3 (Homo sapiens, UniProt P35916). The assay is described as follows: Selectivity interaction (Kinase screening (Nanosyn)) EUB0000604a FLT4.
The target in assay [15] is Tyrosine-protein kinase ABL1 (Homo sapiens, UniProt P00519). The assay can be described thus: Selectivity interaction (KinomeScan (DiscoverX)) EUB0001049a ABL1. As to conditions: at 1 µM.
Assay [16] has as its target T2, Serine/threonine-protein kinase TBK1 (Homo sapiens) (UniProt Q9UHD2).
T2 sequence (whole entry): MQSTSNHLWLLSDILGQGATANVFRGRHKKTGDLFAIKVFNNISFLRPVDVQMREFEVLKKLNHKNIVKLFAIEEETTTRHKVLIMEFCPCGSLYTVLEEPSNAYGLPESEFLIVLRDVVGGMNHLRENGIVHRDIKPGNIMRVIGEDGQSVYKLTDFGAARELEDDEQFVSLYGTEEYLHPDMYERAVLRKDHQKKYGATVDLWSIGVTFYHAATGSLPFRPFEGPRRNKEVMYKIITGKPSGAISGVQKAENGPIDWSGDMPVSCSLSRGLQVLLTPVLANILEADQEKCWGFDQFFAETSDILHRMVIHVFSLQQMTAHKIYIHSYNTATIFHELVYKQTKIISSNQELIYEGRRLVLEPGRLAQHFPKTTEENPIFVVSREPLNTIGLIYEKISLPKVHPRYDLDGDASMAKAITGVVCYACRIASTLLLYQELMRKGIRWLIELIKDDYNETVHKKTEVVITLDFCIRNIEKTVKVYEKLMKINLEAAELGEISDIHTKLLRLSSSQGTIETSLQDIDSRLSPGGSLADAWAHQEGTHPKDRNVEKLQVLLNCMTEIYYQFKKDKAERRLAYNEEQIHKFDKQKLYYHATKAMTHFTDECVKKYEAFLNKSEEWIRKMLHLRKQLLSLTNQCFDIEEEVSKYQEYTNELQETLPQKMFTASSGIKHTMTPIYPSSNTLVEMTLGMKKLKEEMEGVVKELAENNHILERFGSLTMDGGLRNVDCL
The assay is described as follows: Selectivity interaction (ProQinase) EUB0000171b TBK1.

Chain of Tyrosine-protein kinase ABL1 (P00519 whole entry): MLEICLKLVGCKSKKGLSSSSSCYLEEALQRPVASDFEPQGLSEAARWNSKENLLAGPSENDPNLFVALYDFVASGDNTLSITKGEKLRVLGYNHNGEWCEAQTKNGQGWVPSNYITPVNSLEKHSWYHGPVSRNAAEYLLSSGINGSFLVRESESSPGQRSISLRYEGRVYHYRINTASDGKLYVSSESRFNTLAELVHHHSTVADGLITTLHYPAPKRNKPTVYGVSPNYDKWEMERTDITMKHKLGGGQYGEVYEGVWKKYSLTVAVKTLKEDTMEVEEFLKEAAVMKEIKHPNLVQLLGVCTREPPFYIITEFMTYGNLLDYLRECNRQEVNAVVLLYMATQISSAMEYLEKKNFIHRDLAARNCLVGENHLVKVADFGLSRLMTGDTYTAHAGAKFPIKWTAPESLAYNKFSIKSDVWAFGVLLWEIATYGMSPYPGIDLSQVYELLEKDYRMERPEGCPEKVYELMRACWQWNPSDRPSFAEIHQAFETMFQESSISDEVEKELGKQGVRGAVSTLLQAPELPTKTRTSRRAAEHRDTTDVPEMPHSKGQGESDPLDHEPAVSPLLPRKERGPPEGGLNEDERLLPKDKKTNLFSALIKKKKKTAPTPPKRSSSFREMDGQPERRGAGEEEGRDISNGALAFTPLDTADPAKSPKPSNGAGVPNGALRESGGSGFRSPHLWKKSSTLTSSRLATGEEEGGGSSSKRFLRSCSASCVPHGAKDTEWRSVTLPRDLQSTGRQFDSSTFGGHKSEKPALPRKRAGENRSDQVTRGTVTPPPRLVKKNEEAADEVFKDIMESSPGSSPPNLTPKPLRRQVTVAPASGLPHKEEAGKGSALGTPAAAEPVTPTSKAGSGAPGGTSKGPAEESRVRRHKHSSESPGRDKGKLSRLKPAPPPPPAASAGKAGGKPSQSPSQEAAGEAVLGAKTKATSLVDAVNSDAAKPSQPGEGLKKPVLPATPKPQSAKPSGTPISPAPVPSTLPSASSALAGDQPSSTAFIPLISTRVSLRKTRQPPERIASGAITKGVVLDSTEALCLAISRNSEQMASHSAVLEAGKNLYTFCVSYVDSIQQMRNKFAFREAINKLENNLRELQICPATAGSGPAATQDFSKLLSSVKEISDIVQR
Chain of Vascular endothelial growth factor receptor 3 (P35916 whole entry): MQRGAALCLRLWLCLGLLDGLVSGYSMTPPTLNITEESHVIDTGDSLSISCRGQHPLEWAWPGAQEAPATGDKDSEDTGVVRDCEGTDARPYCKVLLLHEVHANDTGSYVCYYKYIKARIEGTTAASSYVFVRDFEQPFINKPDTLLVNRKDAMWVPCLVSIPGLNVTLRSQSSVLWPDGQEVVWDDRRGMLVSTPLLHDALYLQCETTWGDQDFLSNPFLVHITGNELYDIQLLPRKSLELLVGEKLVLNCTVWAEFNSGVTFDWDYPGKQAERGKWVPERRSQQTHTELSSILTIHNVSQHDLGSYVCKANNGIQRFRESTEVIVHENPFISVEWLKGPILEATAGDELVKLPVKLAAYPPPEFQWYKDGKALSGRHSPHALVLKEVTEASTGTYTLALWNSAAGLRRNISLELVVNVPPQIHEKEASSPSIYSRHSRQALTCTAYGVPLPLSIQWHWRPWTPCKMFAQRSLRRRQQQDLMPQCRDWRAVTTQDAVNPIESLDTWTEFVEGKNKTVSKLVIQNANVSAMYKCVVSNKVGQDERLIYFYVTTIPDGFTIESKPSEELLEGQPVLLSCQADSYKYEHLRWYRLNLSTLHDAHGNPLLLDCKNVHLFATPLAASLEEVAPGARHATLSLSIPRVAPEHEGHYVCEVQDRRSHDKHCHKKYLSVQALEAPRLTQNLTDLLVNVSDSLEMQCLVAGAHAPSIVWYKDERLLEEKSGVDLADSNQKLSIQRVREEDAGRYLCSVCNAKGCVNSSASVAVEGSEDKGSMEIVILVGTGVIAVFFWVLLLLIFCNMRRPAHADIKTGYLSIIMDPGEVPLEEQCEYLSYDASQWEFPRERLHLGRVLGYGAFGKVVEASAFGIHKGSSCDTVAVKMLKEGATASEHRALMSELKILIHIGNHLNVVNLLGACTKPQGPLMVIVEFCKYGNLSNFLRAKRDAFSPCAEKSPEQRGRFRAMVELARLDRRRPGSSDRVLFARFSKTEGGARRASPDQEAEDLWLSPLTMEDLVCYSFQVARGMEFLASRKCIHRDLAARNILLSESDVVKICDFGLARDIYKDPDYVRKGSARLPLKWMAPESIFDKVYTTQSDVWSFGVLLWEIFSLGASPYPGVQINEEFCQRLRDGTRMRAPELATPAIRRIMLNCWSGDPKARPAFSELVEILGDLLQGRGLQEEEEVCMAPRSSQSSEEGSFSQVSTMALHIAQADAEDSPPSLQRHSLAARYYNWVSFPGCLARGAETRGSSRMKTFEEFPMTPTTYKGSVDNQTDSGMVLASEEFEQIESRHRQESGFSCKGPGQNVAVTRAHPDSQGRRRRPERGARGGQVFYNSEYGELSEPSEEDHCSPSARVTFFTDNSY
Chain of Leucine-rich repeat serine/threonine-protein kinase 2 (Homo sapiens), Q5S007 [G2019S] (Q5S007 whole entry G2019S, canonical isoform): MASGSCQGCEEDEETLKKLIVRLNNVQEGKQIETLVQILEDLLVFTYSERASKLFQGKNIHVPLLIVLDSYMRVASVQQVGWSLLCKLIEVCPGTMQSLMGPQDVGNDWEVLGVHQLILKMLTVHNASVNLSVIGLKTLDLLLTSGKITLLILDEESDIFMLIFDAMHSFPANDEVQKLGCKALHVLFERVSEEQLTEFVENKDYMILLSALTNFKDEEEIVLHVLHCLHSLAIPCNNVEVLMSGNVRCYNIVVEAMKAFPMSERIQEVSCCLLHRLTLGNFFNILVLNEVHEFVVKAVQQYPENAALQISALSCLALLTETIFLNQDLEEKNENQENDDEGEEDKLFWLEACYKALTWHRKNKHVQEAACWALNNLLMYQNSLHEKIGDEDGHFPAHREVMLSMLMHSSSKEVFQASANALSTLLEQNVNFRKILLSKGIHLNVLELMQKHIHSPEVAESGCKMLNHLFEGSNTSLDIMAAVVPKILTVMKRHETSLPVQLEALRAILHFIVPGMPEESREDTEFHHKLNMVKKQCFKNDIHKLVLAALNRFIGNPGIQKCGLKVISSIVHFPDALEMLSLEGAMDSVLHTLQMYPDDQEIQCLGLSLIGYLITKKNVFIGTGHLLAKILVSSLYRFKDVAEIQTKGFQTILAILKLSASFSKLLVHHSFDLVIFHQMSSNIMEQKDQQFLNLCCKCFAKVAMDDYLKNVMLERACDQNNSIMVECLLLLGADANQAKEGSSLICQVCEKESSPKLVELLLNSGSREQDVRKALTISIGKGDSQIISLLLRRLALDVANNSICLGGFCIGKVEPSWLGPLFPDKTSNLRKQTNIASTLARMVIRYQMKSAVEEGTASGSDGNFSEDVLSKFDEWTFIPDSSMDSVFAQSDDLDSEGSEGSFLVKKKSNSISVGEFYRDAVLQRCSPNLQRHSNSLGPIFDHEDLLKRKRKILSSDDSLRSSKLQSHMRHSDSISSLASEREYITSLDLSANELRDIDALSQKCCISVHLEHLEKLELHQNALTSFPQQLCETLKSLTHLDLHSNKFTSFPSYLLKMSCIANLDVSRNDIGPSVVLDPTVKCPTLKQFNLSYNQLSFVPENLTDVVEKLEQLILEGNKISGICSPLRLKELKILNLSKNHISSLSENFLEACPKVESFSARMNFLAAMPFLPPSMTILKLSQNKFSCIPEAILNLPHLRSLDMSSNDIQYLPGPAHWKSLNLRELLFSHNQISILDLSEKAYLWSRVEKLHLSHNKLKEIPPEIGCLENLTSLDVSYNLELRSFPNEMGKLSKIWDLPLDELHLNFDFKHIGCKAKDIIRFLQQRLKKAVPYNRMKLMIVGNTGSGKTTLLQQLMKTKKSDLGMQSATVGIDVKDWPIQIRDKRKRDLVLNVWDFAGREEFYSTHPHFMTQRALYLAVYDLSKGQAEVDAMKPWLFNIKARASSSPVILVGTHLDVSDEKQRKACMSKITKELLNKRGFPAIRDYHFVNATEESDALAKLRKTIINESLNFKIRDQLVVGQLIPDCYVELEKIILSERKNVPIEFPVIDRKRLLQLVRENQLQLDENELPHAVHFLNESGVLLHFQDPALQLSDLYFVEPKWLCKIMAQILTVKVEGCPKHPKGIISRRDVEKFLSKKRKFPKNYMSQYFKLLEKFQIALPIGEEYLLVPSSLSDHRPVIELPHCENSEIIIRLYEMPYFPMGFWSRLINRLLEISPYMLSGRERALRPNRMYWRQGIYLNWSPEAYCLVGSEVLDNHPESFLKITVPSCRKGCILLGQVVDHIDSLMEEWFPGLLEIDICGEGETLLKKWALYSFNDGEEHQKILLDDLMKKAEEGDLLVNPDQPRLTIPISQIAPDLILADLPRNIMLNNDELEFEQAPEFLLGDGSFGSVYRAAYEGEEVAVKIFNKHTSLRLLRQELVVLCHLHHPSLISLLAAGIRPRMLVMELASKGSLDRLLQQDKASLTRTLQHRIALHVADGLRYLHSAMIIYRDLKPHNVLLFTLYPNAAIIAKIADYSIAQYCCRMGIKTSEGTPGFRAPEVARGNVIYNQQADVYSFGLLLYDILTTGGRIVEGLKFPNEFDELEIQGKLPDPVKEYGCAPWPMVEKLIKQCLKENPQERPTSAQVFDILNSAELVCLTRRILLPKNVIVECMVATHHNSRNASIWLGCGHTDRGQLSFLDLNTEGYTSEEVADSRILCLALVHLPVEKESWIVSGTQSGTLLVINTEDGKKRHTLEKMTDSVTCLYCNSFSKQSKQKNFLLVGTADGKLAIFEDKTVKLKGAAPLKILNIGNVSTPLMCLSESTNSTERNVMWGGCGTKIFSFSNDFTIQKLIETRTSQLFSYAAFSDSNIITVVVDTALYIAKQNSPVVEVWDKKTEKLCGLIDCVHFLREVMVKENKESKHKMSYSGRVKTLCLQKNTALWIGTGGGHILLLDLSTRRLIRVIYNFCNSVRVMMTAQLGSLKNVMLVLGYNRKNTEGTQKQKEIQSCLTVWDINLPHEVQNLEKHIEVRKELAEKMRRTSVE

`Cn1cc(-n2cnc3c(NCc4nc5cc(Cl)c(Cl)cc5[nH]4)nc(N4CCOCC4)nc32)cn1`: the % of inhibition in assay [1] came to 95%.

In the case of `O=C(NOC[C@H](O)CO)c1ccc(F)c(F)c1Nc1ccc(I)cc1F`, the % of control was found to be 45% in assay [2]; 56% in assay [3]; 57% in assay [4]; 41% in [5]; 50% in assay [6]; 57% in assay [7]. Besides, the % of control was found to be 53% in [8], 33% in assay [9], 42% in assay [10] and 45% in [11].

In general, IC50 refers to the point on the concentration scale where inhibition reaches its midpoint. Lower therefore signals higher potency. `CCc1cc(Nc2nccc(-c3c(-c4ccc(OC)c(C(=O)Nc5c(F)cccc5F)c4)nc4ccccn34)n2)c(OC)cc1N1CCC(N2CCN(S(C)(=O)=O)CC2)CC1` registered an IC50 in assay [12] of more than 10 µM.

`CC[C@@H]1[C@H](F)C(=O)N[C@@H]1COc1nccc2cc(C(N)=O)c(OC)cc12` [ZIMLOVISERTIB]: the % of inhibition in assay [13] (at 0.01 µM) was 6%; in assay [13] (at 0.04 µM) it was 0%; in [13] (at 0.2 µM), -2.1%; in assay [13] (at 1 µM), -3.6%; in assay [13] (at 5 µM), -0.9%.

In the case of `Cc1cnc(Nc2ccc(F)cc2Cl)nc1-c1c[nH]c(C(=O)N[C@H](CO)c2cccc(Cl)c2)c1`, in [14], the % of inhibition was determined as 8%.

`COc1cc(Nc2nc(C)cc(-c3cnn4nc(OC)ccc34)n2)cc(C(F)(F)F)c1` yielded a % of control in assay [15] of 84%.

On to `C=CC(=O)Nc1cccc(C(=O)Nc2ccc(Nc3cc(-c4[nH]c(SC)nc4C)ccn3)cc2)c1`, for which the values for the % of control in assay [16] (at 1 µM) and in assay [16] (at 5 µM) were 84% and 69%, respectively.
